Measured values published in patent US20240041764A1, “Sustained-Release Oral Fosamprenavir Formulation for Treatment of Reflux” (The Medical College of Wisconsin, Inc., priority 2022, published 2024).
Entries after “also recorded” stand apart in the source; their conditions may differ. Square brackets hold non-standard residues; d marks the D form. Peptide text beside a SMILES is read from it. * marks the point of attachment. Sta = CC(C)C[C@H](N)[C@@H](O)CC(=O)O; Isovaleryl = CC(C)CC(=O)*

What was measured:
pepsin [1] = settings: cited from earlier work
porcine pepsin = molecular target: T1, porcine pepsin (Sus scrofa, UniProt P00791); assay: peptic activity assay, fluorescence polarization with casein-Alexa647; type: biochemical; settings: for inhibited pepsin (peptic activity): 200 nM probe, 0.01 U/μL pepsin, 5% DMSO, 0.1 M HCl pH 1
T1 construct: purchased Worthington Biochemical Corporation
Method: To examine whether HIV protease inhibitors bound and inhibited pepsin, we developed assays based on fluorescence polarization which measures size-dependent molecular rotation thereby permitting detection of degradation, association and dissociation events^80. A competitive binding assay was designed employing pepstatin, an inhibitor of sub-nanomolar affinity^81. Pepstatin-Alexa647 was synthesized by dissolving 1 mg pepstatin A (Sigma-Aldrich) in a 50:50 mixture of dimethylformamide (DMF) and dimethylsulfoxide (DMS) followed by the addition of N,N,N′,N′-Tetramethyl-O—(N-succinimidyl)uronium tetrafluoroborate (0.6 mg) and trimethylamine (10 μL) DMF. The mixture was stirred for 1 hour, after which 1 mg Alexa Fluor 647 Cadaverine, Disodium Salt (ThermoFisher Scientific) was added. After 2 hours, the solvents were evaporated under high vacuum (35° C.) and residue partially dissolved in 10% methanol and transferred onto a C18 cartridge (Waters Corporation, Milford, MA). Increasing percentages of methanol were used for the elution. […] An enzymatic inhibition assay was designed using casein substrate.^82 Bovine alpha casein (Sigma-Aldrich, St. Louis, MO) was labeled with Alexa Fluor 647 Carboxylic Acid, Succinimidyl Ester (ThermoFisher Scientific, Waltham, MA) as described.^82 Briefly, the two were combined at 2.5 ug/mg label to protein ratio in 0.1M sodium bicarbonate for 15 minutes and labeled casein was separated from unbound label in a Sephadex G-25 (Sigma-Aldrich) column comprised of 90×5 mm packed beads in a glass Pasteur pipette, eluted with dPBS pH7.4 (ThermoFisher Scientific). The fast-moving band (casein-bound fluorophore) was collected in ˜0.4 ml volume. Concentration of resultant probe (casein-Alexa647 in PBS-azide) was estimated via spectrophotometry using Beer's law (Implen Nanophotometer, Implen, Inc. Westlake Village, CA).
(§1) Assays were optimized using ranges of 0.3-1000 μM unlabeled pepstatin, 100-500 nM pepstatin-Alexa647 or casein-Alexa647 probe, 0.003-3 U/μl porcine pepsin (Worthington Biochemical Corporation, Lakewood, NJ), and 5-37.5% DMSO (HIV protease inhibitor diluent) in 0.1 M HCl, pH 1 with 0.01% v/v Tween-20 in 20 μl volumes in 384-well black optical plates (Nunc, Roskilde, DK) and read on a BioTek Cytation 5 (BioTek Instruments, Winooski, VT) with far red FP filter cube (excitation/emission 620/680 nm). Unlabeled pepstatin dose-response curves were used to ensure that the assays were responsive to pepsin inhibition. […] Assays were performed twice with triplicate reactions read for five minutes and mean mP plotted against probe concentration (binding assay) or read at <2 minutes intervals over 30 minutes with mean mP of plotted over time (activity assay). Half maximal inhibitory concentration (IC50) of inhibitors were calculated from kinetic traces analyzed using an online tool (https://icekat.herokuapp.com/icekat)^83. mP was normalized to blank (absent inhibitor) to derive percent bound or activity.

[2] = in vivo; cited from earlier work
porcine pepsin A = molecular target: T2, porcine pepsin A (Sus scrofa, UniProt P00791); assay: competitive binding assay, fluorescence polarization with pepstatin-Alexa647; settings: 100 nM probe, 0.03 U/ul porcine pepsin A, 37.5% DMSO, 0.1 M HCl pH 1
T2 construct: purchased Worthington Biochemical Corporation
Method: To examine whether HIV protease inhibitors bound and inhibited pepsin, we developed assays based on fluorescence polarization which measures size-dependent molecular rotation thereby permitting detection of degradation, association and dissociation events^80. A competitive binding assay was designed employing pepstatin, an inhibitor of sub-nanomolar affinity^81. Pepstatin-Alexa647 was synthesized by dissolving 1 mg pepstatin A (Sigma-Aldrich) in a 50:50 mixture of dimethylformamide (DMF) and dimethylsulfoxide (DMS) followed by the addition of N,N,N′,N′-Tetramethyl-O—(N-succinimidyl)uronium tetrafluoroborate (0.6 mg) and trimethylamine (10 μL) DMF. The mixture was stirred for 1 hour, after which 1 mg Alexa Fluor 647 Cadaverine, Disodium Salt (ThermoFisher Scientific) was added. After 2 hours, the solvents were evaporated under high vacuum (35° C.) and residue partially dissolved in 10% methanol and transferred onto a C18 cartridge (Waters Corporation, Milford, MA). Increasing percentages of methanol were used for the elution. Pepstatin-Alexa647 eluted at 45% methanol. An enzymatic inhibition assay was designed using casein substrate.^82 Bovine alpha casein (Sigma-Aldrich, St. Louis, MO) was labeled with Alexa Fluor 647 Carboxylic Acid, Succinimidyl Ester (ThermoFisher Scientific, Waltham, MA) as described.^82 Briefly, the two were combined at 2.5 ug/mg label to protein ratio in 0.1M sodium bicarbonate for 15 minutes and labeled casein was separated from unbound label in a Sephadex G-25 (Sigma-Aldrich) column comprised of 90×5 mm packed beads in a glass Pasteur pipette, eluted with dPBS pH7.4 (ThermoFisher Scientific). The fast-moving band (casein-bound fluorophore) was collected in ˜0.4 ml volume. […]
as §1, with “nm).” for “nm). Unlabeled pepstatin dose-response curves were used to ensure that the assays were responsive to pepsin inhibition.”

[3] = test system: patients with HEMII-pH testing-confirmed alkaline LPR; settings: thrice daily post meal with anti-reflux diet; n=48; cited from earlier work
[4] = cited from earlier work
pepsin [5] = settings: cited from earlier work; remark: listed apart in the source

T1 sequence (P00791 60-385): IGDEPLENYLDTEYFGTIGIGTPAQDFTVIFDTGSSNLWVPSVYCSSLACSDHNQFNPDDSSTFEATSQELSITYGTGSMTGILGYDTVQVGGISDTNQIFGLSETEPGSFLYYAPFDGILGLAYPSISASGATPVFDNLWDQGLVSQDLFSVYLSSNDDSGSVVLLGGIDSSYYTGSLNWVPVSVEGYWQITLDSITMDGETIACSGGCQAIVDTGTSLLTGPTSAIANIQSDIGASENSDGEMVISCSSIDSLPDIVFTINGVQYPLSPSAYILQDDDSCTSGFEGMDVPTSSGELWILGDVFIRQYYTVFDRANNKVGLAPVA
T2 sequence (P00791 60-385): as above

## anthocyanin
Pepsin [1]
  effect on pepsin-mediated damage and inflammation: abrogate this damage and inflammation

## CC(C)CN(C[C@@H](O)[C@H](Cc1ccccc1)NC(=O)O[C@H]1CCOC1)S(=O)(=O)c1ccc(N)cc1 [amprenavir, [(3S)-oxolan-3-yl] N-[(2S,3R)-4-[(4-aminophenyl)sulfonyl-(2-methylpropyl)amino]-3-hydroxy-1-phenylbutan-2-yl]carbamate]
Porcine pepsin
  inhibited pepsin (peptic activity): low micromolar
Porcine pepsin; in vitro binding and inhibition assays, IC50 from kinetic traces
  IC50 for pepsin: low micromolar range
[2]
  side effects: minimal side effects (diarrhea, nausea and vomiting)
Porcine pepsin A
  bound pepsin (competitive binding): low micromolar

## O.O=S(=O)([O-])[O-].O=S(=O)([O-])[O-].[Al+3].[Al+3].[Al+3].[Al+3].[Al+3].[Mg+2].[Mg+2].[Mg+2].[Mg+2].[Mg+2].[Mg+2].[Mg+2].[Mg+2].[Mg+2].[Mg+2].[OH-].[OH-].[OH-].[OH-].[OH-].[OH-].[OH-].[OH-].[OH-].[OH-].[OH-].[OH-].[OH-].[OH-].[OH-].[OH-].[OH-].[OH-].[OH-].[OH-].[OH-].[OH-].[OH-].[OH-].[OH-].[OH-].[OH-].[OH-].[OH-].[OH-].[OH-] [magaldrate]
[3]
  voice quality (GRBAS dysphonia and roughness, jitter, shimmer, noise to harmonic ratio): improved voice quality

## CC(C)c1nc(CN(C)C(=O)N[C@H](C(=O)N[C@@H](Cc2ccccc2)C[C@H](O)[C@H](Cc2ccccc2)NC(=O)OCc2cncs2)C(C)C)cs1 [ritonavir, 1,3-thiazol-5-ylmethyl N-[(2S,3S,5S)-3-hydroxy-5-[[(2S)-3-methyl-2-[[methyl-[(2-propan-2-yl-1,3-thiazol-4-yl)methyl]carbamoyl]amino]butanoyl]amino]-1,6-diphenylhexan-2-yl]carbamate]
Porcine pepsin
  inhibited pepsin (peptic activity): low micromolar
[2]
  side effects: minimal side effects (diarrhea, nausea and vomiting)
Porcine pepsin A
  bound pepsin (competitive binding): low micromolar

## CC(C)c1cc2c(cc1S(=O)(=O)O)[C@@]1(C)CCC[C@@](C)(C(=O)O)[C@@H]1CC2 [ecabet sodium]
Pepsin [1]
  effect on pepsin-mediated damage and inflammation: abrogate this damage and inflammation

## CC(C)CC(=O)N[C@H](C(=O)N[C@H](C(=O)N[C@@H](CC(C)C)[C@@H](O)CC(=O)N[C@@H](C)C(=O)N[C@@H](CC(C)C)[C@@H](O)CC(=O)O)C(C)C)C(C)C [pepstatin] (Isovaleryl-VV[Sta]A[Sta]-OH)
Pepsin [1]
  effect on pepsin-mediated damage and inflammation: abrogate this damage and inflammation
[4]
  water solubility: poor water-solubility; also recorded: poor water-soluble characteristics
Pepsin [5]
  affinity / potency as pepsin inhibitor: potent pepsin inhibitor; also recorded: sub-nanomolar
